Data published in ChEMBL document CHEMBL2203067, “Peptide-chlorambucil conjugates combat pgp-dependent drug efflux” (ACS Med Chem Lett, 2011).
The source made the active and inactive calls. No cut-off for these calls is given here.

Assays:
[1] = Cellular uptake in adriamycin-resistant human A2780 cells plasma membrane at 5 uM after 5 mins by confocal microscopic analysis; type: ADME, cell-based; conditions: a2780, 5 min
A2780 [2] = assay: Inhibition of Pgp-mediated drug efflux in adriamycin-resistant human A2780 cells assessed as increase in intracellular actinomycin level at 5 uM after 40 mins by flow cytometry analysis; type: cell-based
A2780 [3] = assay: Inhibition of Pgp-mediated drug efflux in adriamycin-resistant human A2780 cells assessed as increase in intracellular adriamycin level at 5 uM after 40 mins by flow cytometry analysis; type: cell-based
A2780 [4] = assay: Inhibition of Pgp-mediated drug efflux in adriamycin-resistant human A2780 cells assessed as increase in adriamycin uptake at 5 uM after 8 hrs by flow cytometry analysis; type: cell-based
A2780 [5] = assay: Inhibition of Pgp-mediated drug efflux in adriamycin-resistant human A2780 cells assessed as increase in adriamycin uptake at 5 uM after 1 hr by flow cytometry analysis; type: cell-based
A2780 [6] = assay: Inhibition of Pgp-mediated drug efflux in adriamycin-resistant human A2780 cells assessed as increase in adriamycin-induced cytotoxicity at 5 uM after 1 hr by CCK-8 assay; type: cell-based
A2780 [7] = assay: Inhibition of Pgp-mediated drug efflux in adriamycin-resistant human A2780 cells assessed as increase in adriamycin-induced cytotoxicity at 5 uM after 8 hrs by CCK-8 assay; type: cell-based
A2780 [8] = assay: Cellular uptake in adriamycin-resistant human A2780 cells at 20 uM after 5 mins by confocal microscopic analysis; type: ADME, cell-based; conditions: a2780, 5 min
[9] = Cellular uptake in wild type human A2780 cell mitochondria at 5 uM after 40 mins by confocal microscopic analysis; type: ADME; conditions: a2780, 40 min
A2780 [10] = assay: Inhibition of Pgp-mediated drug efflux in human A2780 cells overexpressing Pgp assessed as increase in intracellular adriamycin level at 5 uM after 40 mins by flow cytometry analysis; type: cell-based
A2780 [11] = assay: Inhibition of Pgp-mediated drug efflux in adriamycin-resistant human A2780 cells assessed as increase of MitoTracker accumulation at 5 uM after 5 mins by confocal microscopic analysis; type: cell-based
A2780 [12] = assay: Inhibition of Pgp-mediated drug efflux in adriamycin-resistant human A2780 cells assessed as localization of adriamycin from plasma membrane to intracellular sites at 5 uM after 5 mins by confocal microscopic analysis; type: cell-based
A2780 [13] = assay: Inhibition of Pgp in adriamycin-resistant human A2780 cells assessed as co-immunoprecipitation with biotin-Fxr3kCbl at 5 uM after 1 hr by immunoblotting analysis; type: cell-based
[14] = target: ATP-dependent translocase ABCB1 (Homo sapiens, UniProt P08183); assay: Inhibition of p-glycoprotein in adriamycin-resistant human A2780 cell at 5 uM after 40 mins by confocal microscopic analysis; conditions: a2780, 40 min
A2780 [15] = assay: Inhibition of Pgp-mediated drug efflux in adriamycin-resistant human A2780 cells assessed as localization of MitoTracker from plasma membrane to intracellular sites at 5 uM after 5 mins by confocal microscopic analysis; type: cell-based
[16] = Cellular uptake in adriamycin-resistant human A2780 cell plasma membrane at 5 uM after 40 mins by confocal microscopic analysis; type: ADME, cell-based; conditions: a2780, 40 min
[17] = Cellular uptake in adriamycin-resistant human A2780 cell mitochondria at 5 uM after 40 mins by confocal microscopic analysis; type: ADME; conditions: a2780, 40 min

Chain of ATP-dependent translocase ABCB1 (P08183 whole entry): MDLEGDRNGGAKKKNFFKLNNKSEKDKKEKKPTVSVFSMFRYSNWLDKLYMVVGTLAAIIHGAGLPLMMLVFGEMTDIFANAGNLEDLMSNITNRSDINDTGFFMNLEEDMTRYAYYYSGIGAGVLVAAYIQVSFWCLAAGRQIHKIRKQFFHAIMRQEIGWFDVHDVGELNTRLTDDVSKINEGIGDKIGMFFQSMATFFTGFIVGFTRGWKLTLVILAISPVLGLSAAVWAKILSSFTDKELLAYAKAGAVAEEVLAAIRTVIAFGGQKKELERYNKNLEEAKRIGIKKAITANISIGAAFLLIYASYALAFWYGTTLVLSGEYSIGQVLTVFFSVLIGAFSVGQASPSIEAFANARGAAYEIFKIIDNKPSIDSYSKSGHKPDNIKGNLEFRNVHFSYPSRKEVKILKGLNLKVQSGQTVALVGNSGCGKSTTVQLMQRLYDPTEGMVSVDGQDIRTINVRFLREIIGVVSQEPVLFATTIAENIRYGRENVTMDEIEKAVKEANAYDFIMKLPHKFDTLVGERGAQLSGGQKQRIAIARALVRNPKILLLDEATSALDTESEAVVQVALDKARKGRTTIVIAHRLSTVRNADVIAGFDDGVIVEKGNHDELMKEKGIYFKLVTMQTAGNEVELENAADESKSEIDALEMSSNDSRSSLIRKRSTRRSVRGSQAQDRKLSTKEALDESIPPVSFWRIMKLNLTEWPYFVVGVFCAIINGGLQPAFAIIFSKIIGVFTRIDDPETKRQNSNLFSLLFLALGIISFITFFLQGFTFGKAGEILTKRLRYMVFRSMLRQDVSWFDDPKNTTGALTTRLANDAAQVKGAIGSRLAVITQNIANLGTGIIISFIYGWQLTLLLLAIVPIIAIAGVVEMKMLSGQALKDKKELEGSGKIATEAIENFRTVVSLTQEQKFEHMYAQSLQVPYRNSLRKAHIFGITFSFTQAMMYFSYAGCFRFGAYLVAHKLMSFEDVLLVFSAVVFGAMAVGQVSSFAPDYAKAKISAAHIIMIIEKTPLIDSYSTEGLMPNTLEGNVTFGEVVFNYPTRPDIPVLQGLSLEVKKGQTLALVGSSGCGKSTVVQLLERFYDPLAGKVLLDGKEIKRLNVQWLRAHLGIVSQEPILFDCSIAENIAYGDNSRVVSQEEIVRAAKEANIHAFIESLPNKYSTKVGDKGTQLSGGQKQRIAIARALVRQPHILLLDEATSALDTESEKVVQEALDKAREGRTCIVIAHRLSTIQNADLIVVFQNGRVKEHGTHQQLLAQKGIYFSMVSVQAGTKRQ

Structure (SMILES): CN1/C(=C\c2cc[n+](CCCCCC(=O)N[C@@H](CC3CCCCC3)C(=O)N[C@H](CCCNC(=N)N)C(=O)N[C@@H](CC3CCCCC3)C(=O)N[C@H](CCCNC(=N)N)C(=O)N[C@@H](CC3CCCCC3)C(=O)N[C@H](CCCNC(=N)N)C(=O)N[C@H](CCCCNC(=O)CCCc3ccc(N(CCCl)CCCl)cc3)C(N)=O)c3ccccc23)Sc2ccccc21
- Drug uptake [1]: Active
- inhibition (A2780 [2]): Active
- inhibition (A2780 [3]): Active

Structure (SMILES): CN1/C(=C\c2cc[n+](CCCCCC(=O)N[C@@H](Cc3ccccc3)C(=O)N[C@H](CCCNC(=N)N)C(=O)N[C@@H](Cc3ccccc3)C(=O)N[C@H](CCCNC(=N)N)C(=O)N[C@@H](Cc3ccccc3)C(=O)N[C@H](CCCNC(=N)N)C(=O)N[C@H](CCCCNC(=O)CCCc3ccc(N(CCCl)CCCl)cc3)C(N)=O)c3ccccc23)Sc2ccccc21
- Drug uptake [1]: Active
- inhibition (A2780 [3]): Active
- inhibition (A2780 [4]): inactive
- inhibition (A2780 [5]): Active
- inhibition (A2780 [6]): 50%
- inhibition (A2780 [7]): 50%

Structure (SMILES): CN1/C(=C\c2cc[n+](CCCCCC(=O)N[C@@H](Cc3ccncc3)C(=O)N[C@H](CCCNC(=N)N)C(=O)N[C@@H](Cc3ccncc3)C(=O)N[C@H](CCCNC(=N)N)C(=O)N[C@@H](Cc3ccncc3)C(=O)N[C@H](CCCNC(=N)N)C(=O)N[C@H](CCCCNC(=O)CCCc3ccc(N(CCCl)CCCl)cc3)C(N)=O)c3ccccc23)Sc2ccccc21
- Drug uptake [1]: Active
- inhibition (A2780 [3]): Active
- inhibition (A2780 [4]): inactive
- inhibition (A2780 [5]): Active
- inhibition (A2780 [6]): 50%
- inhibition (A2780 [7]): 50%

Structure (SMILES): CN1/C(=C\c2cc[n+](CCCCCC(=O)N[C@@H](CCCNC(=N)N)C(=O)N[C@@H](CCCNC(=N)N)C(=O)N[C@@H](CCCNC(=N)N)C(=O)N[C@@H](CCCNC(=N)N)C(=O)N[C@@H](CCCNC(=N)N)C(=O)N[C@@H](CCCNC(=N)N)C(=O)N[C@H](CCCCNC(=O)CCCc3ccc(N(CCCl)CCCl)cc3)C(N)=O)c3ccccc23)Sc2ccccc21
- Drug uptake [1]: Not Active
- inhibition (A2780 [3]): Active
- Drug uptake (A2780 [8]): Not Active

Structure (SMILES): CN1/C(=C\c2cc[n+](CCCCCC(=O)N[C@@H](CC3CCCCC3)C(=O)N[C@H](CCCNC(=N)N)C(=O)N[C@@H](CC3CCCCC3)C(=O)N[C@H](CCCNC(=N)N)C(=O)N[C@@H](CC3CCCCC3)C(=O)N[C@H](CCCNC(=N)N)C(=O)N[C@@H](CCCCNC(=O)CCCc3ccc(N(CCCl)CCCl)cc3)C(N)=O)c3ccccc23)Sc2ccccc21
- Drug uptake [9]: Active
- inhibition (A2780 [10]): Active
- inhibition (A2780 [11]): inactive
- inhibition (A2780 [12]): Active
- inhibition (A2780 [13]): Active
- inhibition (INH) [14]: Active
- inhibition (A2780 [15]): Active
- Drug uptake [16]: Active
- Drug uptake [17]: Not Active

Structure (SMILES): N=C(N)NCCC[C@@H](NC(=O)[C@H](CC1CCCCC1)NC(=O)[C@@H](CCCNC(=N)N)NC(=O)[C@H](CC1CCCCC1)NC(=O)[C@@H](CCCNC(=N)N)NC(=O)[C@@H](N)CC1CCCCC1)C(=O)N[C@@H](CCCCN)C(N)=O
- inhibition (A2780 [10]): inactive

Structure (SMILES): CN1/C(=C\c2cc[n+](CCCCCC(=O)N[C@@H](CC3CCCCC3)C(=O)N[C@H](CCCCN)C(=O)N[C@@H](CC3CCCCC3)C(=O)N[C@H](CCCCN)C(=O)N[C@@H](CC3CCCCC3)C(=O)N[C@H](CCCCN)C(=O)N[C@H](CCCCNC(=O)CCCc3ccc(N(CCCl)CCCl)cc3)C(N)=O)c3ccccc23)Sc2ccccc21
- inhibition (A2780 [3]): Active
- inhibition (A2780 [4]): inactive
- inhibition (A2780 [5]): Active
- inhibition (A2780 [6]): 50%
- inhibition (A2780 [7]): 50%

Structure (SMILES): O=C(O)CCCc1ccc(N(CCCl)CCCl)cc1
- inhibition (A2780 [10]): inactive

Structure (SMILES): CN1/C(=C\c2cc[n+](CCCCCC(=O)N[C@@H](Cc3ccc(O)cc3)C(=O)N[C@H](CCCNC(=N)N)C(=O)N[C@@H](Cc3ccc(O)cc3)C(=O)N[C@H](CCCNC(=N)N)C(=O)N[C@@H](Cc3ccc(O)cc3)C(=O)N[C@H](CCCNC(=N)N)C(=O)N[C@H](CCCCNC(=O)CCCc3ccc(N(CCCl)CCCl)cc3)C(N)=O)c3ccccc23)Sc2ccccc21
- Drug uptake [1]: Not Active
- inhibition (A2780 [3]): Active
- Drug uptake (A2780 [8]): Not Active
